Six compounds from US6358983B1, “Heterocyclically substituted α-hydroxycarboxylic acid derivatives, method for producing the same and their use as endothelin receptor antagonists” (Abbott Laboratories, priority 1997, dated 2002) can be followed below.

Bounds are passed on as bounds.

Experiment [1] deals with T1, human ETA receptor (Homo sapiens, UniProt P25101).
T1 construct: expressed in transfected cells; host or cells: CHO cells (membrane preparation)
T1 sequence (P25101 21-427): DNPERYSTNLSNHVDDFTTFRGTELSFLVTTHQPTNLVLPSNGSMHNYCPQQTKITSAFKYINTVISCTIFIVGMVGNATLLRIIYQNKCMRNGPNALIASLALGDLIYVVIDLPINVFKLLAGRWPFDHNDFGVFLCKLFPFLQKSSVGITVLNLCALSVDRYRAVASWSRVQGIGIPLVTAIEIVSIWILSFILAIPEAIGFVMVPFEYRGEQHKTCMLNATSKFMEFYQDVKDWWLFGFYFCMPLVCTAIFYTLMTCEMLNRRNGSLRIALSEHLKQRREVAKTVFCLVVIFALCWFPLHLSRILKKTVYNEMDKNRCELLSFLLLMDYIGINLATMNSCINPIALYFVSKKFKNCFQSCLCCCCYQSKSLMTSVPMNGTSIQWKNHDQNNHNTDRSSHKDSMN
As to the kind of experiment: ETA receptor binding test ([125I]-ET1, CHO cell membranes). The settings on record: cloned human ETA receptor, 25 pM [125I]-ET1, 25° C., 30 min. On the procedure: (§1) For binding studies, cloned human ETA or ETB receptor-expressing CHO cells were employed.
(§2) The ETA or ETB receptor-expressing CHO cells were proliferated in DMEM NUT MIX F12 medium (Gibco, No. 21331-020) using 10% fetal calf serum (PAA Laboratories GmbH, Linz, No. A15-022), 1 mM glutamine (Gibco No. 25030-024), 100 U/ml of penicillin and 100 μg/ml of streptomycin (Gibco, Sigma No P-0781). After 48 hours, the cells were washed with PBS and incubated at 37° C. for 5 minutes with 0.05% trypsin-containing PBS. Neutralization with medium was then carried out and the cells were collected by centrifugation at 300×g.
(§3) For the membrane preparation, the cells were adjusted to a concentration of 10^8 cells/ml of buffer (50 mM tris·HCL buffer, pH 7.4) and then disintegrated by means of ultrasound Branson Sonifier 250, 40-70 seconds/constant/output [sic] 20).
(§4) For the ETA and ETB receptor binding test, the membranes were suspended in incubation buffer (50 mM tris HCl, pH 7.4 with 5 mM MnCl2, […] of bacitracin and 0.2% BSA) in a concentration of 50 μg of protein per test batch and incubated at 25° C. with 25 pM [125I]-ET1 (ETA receptor test) or 25 pM [125I]-ET3 (ETB receptor test) in the presence or absence of test substance. The nonspecific binding was determined with 10^−7 M ET1. After 30 min, the free and the bound -radioligand were separated by filtration through GF/B glass fiber filters (Whatman, England) on a Skatron cell collector (Skatron, Lier, Norway) and the filters were washed with ice-cold tris HCl buffer, pH 7.4 with 0.2% BSA.
(§5) The radioactivity collected on the filters was quantified using a Packard 2200 CA liquid scintillation counter.
(§6) According to the binding test described above, receptor binding data were measured for the compounds shown below.

The target in experiment [2] is T2, human ETB receptor (Homo sapiens, UniProt P24530).
T2 construct: expressed in transfected cells; host or cells: CHO cells (membrane preparation)
T2 sequence (P24530 27-442): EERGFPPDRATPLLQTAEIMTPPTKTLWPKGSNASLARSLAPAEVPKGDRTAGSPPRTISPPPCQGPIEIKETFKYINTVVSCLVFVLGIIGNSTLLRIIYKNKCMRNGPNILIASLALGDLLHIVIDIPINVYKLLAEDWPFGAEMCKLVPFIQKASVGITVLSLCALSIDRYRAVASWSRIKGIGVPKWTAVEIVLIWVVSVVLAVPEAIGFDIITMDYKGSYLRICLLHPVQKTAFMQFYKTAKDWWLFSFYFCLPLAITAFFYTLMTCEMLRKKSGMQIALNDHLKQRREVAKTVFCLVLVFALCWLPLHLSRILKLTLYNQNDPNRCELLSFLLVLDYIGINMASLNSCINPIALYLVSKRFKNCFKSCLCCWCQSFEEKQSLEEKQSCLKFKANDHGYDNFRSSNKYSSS
As to the kind of experiment: ETB receptor binding test ([125I]-ET3, CHO cell membranes). Particulars: cloned human ETB receptor, 25 pM [125I]-ET3, 25° C., 30 min. How it is done: as §1, §2, §3, §4, §5, §6

For `COC(c1ccccc1)(c1ccccc1)[C@H](Oc1nc2ccccc2s1)C(=O)O` [Compound I-6, (S)-2-(Benzothiazol-2-yloxy)-3-methoxy-3,3-diphenylpropionic Acid], the figures for the Ki in experiment [1] and in experiment [2] were 900 nM and more than 7100 nM, respectively.
In the case of `COc1ccc(CCOC(c2ccccc2)(c2ccccc2)C(Oc2nc(C)c(C)s2)C(=O)O)cc1OC` (stereo not drawn) [Compound I-13, 2-(4,5-Dimethylthiazol-2-yloxy)-3-(2-(3,4-dimethoxyphenyl)-ethoxy)-3,3-diphenylpropionic Acid], the Ki turned out to be 145 nM in experiment [1] and 210 nM in experiment [2].
The matching figures for `COC(c1ccccc1)(c1ccccc1)[C@H](Oc1nc2c(s1)CCC2)C(=O)O` [Compound I-5, (S)-2-(4,5-Cyclopentenothiazol-2-yloxy)-3-methoxy-3,3-diphenyl-propionic Acid]: 50 nM and more than 700 nM.
Turning to `COC(c1ccccc1)(c1ccccc1)[C@H](Oc1nc(C)c(C)o1)C(=O)O` [Compound I-4, (S)-2-(4,5-Dimethyloxazol-2-yloxy)-3-methoxy-3,3-diphenyl-propionic Acid], the results for the Ki in experiment [1] and in experiment [2] were 29 nM and 3100 nM, respectively.
As to `COc1ccc(CCOC(c2ccccc2)(c2ccccc2)C(Oc2nc(C)c(C)o2)C(=O)O)cc1OC` (stereo not drawn) [Compound I-15, 2-(4,5-Dimethyloxazol-2-yloxy)-3-(2-(3,4-dimethoxyphenyl)-ethoxy)-3,3-diphenylpropionic Acid], the Ki came to 215 nM in experiment [1] and 485 nM in experiment [2].
Turning to `COC(c1ccccc1)(c1ccccc1)[C@H](Oc1nc(C)c(C)s1)C(=O)O` [Compound I-1, (S)-2-(4,5-Dimethylthiazol-2-yloxy)-3-methoxy-3,3-diphenyl-propionic Acid], the results for the Ki in experiment [1] and in experiment [2] were 13 nM and 650 nM, respectively.

In general, Ki refers to the equilibrium dissociation constant of an inhibitor or competing ligand from its target. A low value points to higher affinity.
